Where a SMILES comes first, the peptide text is derived from it. Where no end group is shown, it is not given here.
Key:
[1] = system: CT26 cancer cells in which CAGE expression was induced; assay: Anticancer efficacy of compound and anti-PD-1, alone or combined, in syngeneic mouse model; type: in vivo; details: for absolute weight of the tumor: tumor removed on day 15, compound 10 mpk i.v. every 2 days, anti-PD-1 10 mg/kg i.p. every 3 days; for tumor volume (tumor growth): vs control, compound 10 mpk intravenously every 2 days, anti-PD-1 10 mg/kg intraperitoneally every 3 days, up to day 15
Protocol: (§1) CT26 cancer cells in which CAGE expression was induced were mixed with Matrigel in a ratio of 1:1, and 200 μL of the cell mixture was injected into a female BALB/c mouse at a concentration of 1×10^6 cells/mouse to produce a syngeneic mouse model. After cell inoculation was completed, when the volume of the formed tumor reached 70 to 120 mm^3, groups were randomly separated and drug administration was performed. A cancer immunotherapy drug (anti-PD-1) was intraperitoneally administered at intervals of 3 days at a concentration of 10 mg/kg (mpk), and the compounds according to the present invention, AQTGTGKT, 3-PhPh-AQTGTGKT, and naphthyl-AQTGTGKT, were administered intravenously at intervals of 2 days at a concentration of 10 mpk. The size of the tumor was measured twice a week to calculate a tumor volume, and the weight of a subject was also measured. On day 15 after the start of administration, the tumor was removed, and the absolute weight was measured.

[2] = system: CT26 cells in which CAGE expression was induced; assay: Histological analysis of tumor tissue by H&E staining; type: in vivo, mouse; details: single or combined administration; FIG. 11A
Protocol: (§2) After administering the cancer immunotherapy drug and the compound of the present invention alone or in combination to a syngeneic mouse model produced using CT26 cells in which CAGE expression was induced, tumor tissue was isolated from each subject. The obtained tumor tissue was made into a paraffin block and then sectioned, and histological analysis was performed by performing H&E staining and microscopic observation on tissue slides. […] Fluorescent images were taken at 20× magnification using a confocal microscope, and the number of T cells and macrophages (M2- and M1-type macrophages) on the entire screen was then measured and analyzed.

T cells or macrophages = type: in vivo, mouse
Protocol: as §2

CXCL10 = CXCL10 mRNA expression in tumor tissue by real-time PCR; type: in vivo, mouse; details: relative to control, 2^-ΔΔCt method; FIG. 12
Protocol: After administering the cancer immunotherapy drug and the compound of the present invention alone or in combination to a syngeneic mouse model produced using CT26 cells in which CAGE expression was induced, tumor tissue was isolated from each subject. RNA was extracted from the obtained tumor tissue, cDNA was synthesized, and then an mRNA expression level of the CXCL10 gene was measured through real-time PCR. For each mRNA, a relative expression level compared to the control was calculated through the 2^−ΔΔ^Ct method.

[3] = system: CT26 cancer cells in which CAGE expression was induced; assay: Anticancer efficacy of 3-PhPh-AQTGTGKT and anti-CTLA4, alone or combined, in syngeneic mouse model; type: in vivo; details: 3-PhPh-AQTGTGKT 10 mpk i.v. every 2 days, anti-CTLA4 5 mpk i.p. every 3 days
Protocol: as §1, with “(anti-CTLA4)” for “(anti-PD-1)”, “5 mpk,” for “10 mg/kg (mpk),”, “compound of” for “compounds according to”, “invention (3-PhPh-AQTGTGKT) was intravenously” for “invention, AQTGTGKT, 3-PhPh-AQTGTGKT, and naphthyl-AQTGTGKT, were”, “administered” for “administered intravenously”

[4] = system: CT26 cancer cells in which CAGE expression was induced; assay: Overall survival (OS) period, Kaplan Meier analysis, syngeneic mouse model; type: in vivo; details: for 39 days, 3-PhPh-AQTGTGKT 10 mpk i.v. every 2 days, anti-CTLA4 5 mpk, anti-PD-1 10 mpk every 3 days
Protocol: Next, an overall survival (OS) period according to the single or combined administration of the compound of the present invention and the cancer immunotherapy drug was compared. CT26 cancer cells in which CAGE expression was induced were mixed with Matrigel in a ratio of 1:1, and 200 μL of the cell mixture was injected into a female BALB/c mouse at a concentration of 1×10^6 cells/mouse to produce a syngeneic mouse model. After cell inoculation was completed, when the volume of the formed tumor reached 70 to 120 mm^3, groups were randomly separated and drug administration was performed. The cancer immunotherapy drug (anti-CTLA4) was administered at intervals of 3 days at a concentration of 5 mpk, and the compound of the present invention (3-PhPh-AQTGTGKT) was intravenously administered at intervals of 2 days at a concentration of 10 mpk, and the survival rate of the subjects was analyzed using Kaplan Meier analysis.
Subsequently, the effect of the coadministration of the compound of the present invention and a different cancer immunotherapy drug on the survival rate of subjects was confirmed. CT26 cancer cells in which CAGE expression was induced were mixed with Matrigel in a ratio of 1:1, and 200 μL of the cell mixture was injected into a female BALB/c mouse at a concentration of 1×10^6 cells/mouse to produce a syngeneic mouse model. […]

Row | Compound | absolute weight of the tumor [1] | tumor volume (tumor growth) [1] | tumor cell death in tumor tissue (H&E staining) [2] | frequency of M2 macrophages (CD206) in tumor tissue (T cells or macrophages; FIG. 11C) | frequency of total macrophages (F4/80) in tumor tissue (T cells or macrophages; FIG. 11C) | frequency of cytotoxic T cells (CD8 T cells) in tumor tissue (T cells or macrophages; mouse, in vivo) | frequency of total T cells (CD4 T cells) in tumor tissue (T cells or macrophages; vs control or single administration groups, FIG. 11B) | CXCL10 mRNA expression level in tumor tissue (CXCL10) | tumor growth (tumor volume) ([3]; from day 11) | absolute weight of the tumor ([3]; tumor removed on day 15) | subjects survived ([4]; of 10 subjects, control 2 survived) | subjects died ([4]; control 8 died)
1 | C[C@H](NC(=O)c1cccc(-c2ccccc2)c1)C(=O)N[C@@H](CCC(N)=O)C(=O)N[C@H](C(=O)NCC(=O)N[C@H](C(=O)NCC(=O)N[C@@H](CCCCN)C(=O)N[C@H](C(=O)O)[C@@H](C)O)[C@@H](C)O)[C@@H](C)O [3-PhPh-AQTGTGKT] (HELM PEPTIDE1{[O=C(c1cccc(-c2ccccc2)c1)[*:2]].A.Q.T.G.T.G.K.T}$$$$V2.0) | lower than that of the control | tumor growth began to decrease compared to the control | some areas where tumor cells were killed were observed | no significant difference between the frequencies of macrophages | no significant difference between the frequencies of macrophages | no significant differences in the frequency of immune cells | no significant differences in the frequency of immune cells | similar | statistically significant decrease in tumor growth | lower than that of the control | 3 | 7 out of 10 subjects
2 | C[C@H](NC(=O)c1ccc2ccccc2c1)C(=O)N[C@@H](CCC(N)=O)C(=O)N[C@H](C(=O)NCC(=O)N[C@H](C(=O)NCC(=O)N[C@@H](CCCCN)C(=O)N[C@H](C(=O)O)[C@@H](C)O)[C@@H](C)O)[C@@H](C)O [naphthyl-AQTGTGKT, Naphthyl-AQTGTGKT] (HELM PEPTIDE1{[O=C(c1ccc2ccccc2c1)[*:2]].A.Q.T.G.T.G.K.T}$$$$V2.0) | no significant difference between the tumor weight | no significant difference in tumor volume |  |  |  |  |  |  |  |  |  | 
3 | AQTGTGKT [AQTGTGKT] | no significant difference between the tumor weight | no significant difference in tumor volume |  |  |  |  |  |  |  |  |  | 

Source: patent US20250213645A1, “PHARMACEUTICAL COMPOSITION FOR MODULATING IMMUNE RESPONSE” (L-BASE CO., LTD., priority 2021, published 2025)
